Results taken from article PMC6801585, “Improved In Vivo Anti-Tumor and Anti-Metastatic Effect of GnRH-III-Daunorubicin Analogs on Colorectal and Breast Carcinoma Bearing Mice” (International Journal of Molecular Sciences, 2019).
“And” between values parts separate entries of the source, which are not always exact repeats. Identical values can stand only once.

What was measured:
[1] = test system: HT-29 human colon carcinoma; assay: Orthotopic HT-29 human colon tumor model; assay type: in vivo, SCID female mice
Protocol: Immunodeficient, 6–8 weeks old SCID female mice (21–27 g) were used in this experiment. HT-29 colon carcinoma cells were subcutaneously injected into one side of the intrascapular region, whereby 2 × 10^6 cells were used per animal, suspended in 200 µL of M199 medium, in order to establish the xenografts with primary tumor. After two weeks, the mice with palpable tumors were sacrificed by cervical dislocation, disinfected with iodine and the subcutaneous tumor was aseptically dissected out.
The abdomen of mice was disinfected with iodine and alcohol, a small midline incision (0.5 cm) was then made and the colorectal part of the intestine was exteriorized. Serosa of the site where the tumor pieces should be implanted were removed. Tumor tissue fragments of HT-29 human colon tumor were implanted on the top of the animal intestine, whereby an 8/0 surgical (polypropylene) suture was used to suture it on the wall of the intestine. The intestine was returned to the abdominal cavity and the abdominal wall was closed with 4/0 surgical (polyglycolic acid) sutures. The wound was disinfected with iodine and alcohol again and the animals were kept in a sterile environment.
The treatments started seven days after tumor transplantation by i.p. administration of the free Dau and conjugates which were dissolved in sterile water for injection. Six mice per group were used. One group of mice was treated with free Dau at a dose of 1 mg/kg body weight on day 7, 13 and 20 after tumor transplantation. […] The control group was treated with sterile water. The experiment was terminated on day 30 after tumor transplantation (day 24 of treatment). […] The mice from all groups were sacrificed by cervical dislocation. Their tumors and livers were harvested and weighed.

[2] = test system: MDA-MB-231 human breast carcinoma; assay: Orthotopic MDA-MB-231 human breast tumor model; assay type: in vivo, SCID female mice
Protocol: Adult SCID female mice (22–28 g) were used in this experiment and kept under the same conditions, as described above. […] The treatments started 21 days after cells inoculation, when average tumor volume was 40 mm^3. Free Dau and conjugates were administrated by i.p. injection. Four groups with seven animals per group were established and treated with certain doses and schedules. The mice in the control group were treated with sterile water, while the mice in the free Dau group were treated with a dose of 1 mg/kg, once per week, on day 21, 28, 35 and 42 after cell inoculation. […] The last treatment was performed on day 42 after cell inoculation, whereby a dose of 7.5 mg/kg Dau content was applied. The animal weights and tumor volumes were measured when the treatment was initiated and at periodic intervals according to the treatment schedule. The tumor volume was calculated in the same manner as described for mice breast carcinoma. […] The mice from all groups were sacrificed by cervical dislocation and primary tumors and livers were harvested and weighed, while number of animals with metastases were counted. The anti-tumor effects of the conjugates were evaluated measuring the tumor volume and the tumor weights, while the toxicity effects of conjugates were evaluated measuring liver weights and calculating the liver weight/body weight ratio.

[3] = test system: 4T1 mice breast carcinoma; assay: Orthotopic 4T1 mice breast tumor model; assay type: in vivo, BALB/c female mice
Protocol: Adult BALB/c female mice (20–25 g) were used in this experiment and kept under the same conditions, as described above. 4T1 mice breast carcinoma cells, maintained as described above, were orthotopically injected into the lower quarter of the right mammary fat pad line of mice, whereby 1 × 10^6 cells were used per animal, suspended in 50 µL M199 medium (Sigma Aldrich). The treatment started seven days after cells inoculation, when the average tumor volume was 38 mm^3, by i.p. administration of the conjugates or free Dau. Four groups with seven animals per group were established and treated with certain doses and schedules. The mice in the control group were treated with sterile water, while mice in free Dau group were treated with a dose of 1 mg/kg, once per week, on days 7, 14 and 21 after cells inoculation. […] Animal weight and tumor volumes were measured initially when the treatment started and at periodic intervals according to the treatment schedule. A digital caliper was used to measure the longest (a) and the shortest diameter (b) of a given tumor. The tumor volume was calculated while using the formula V = ab^2 × π/6, whereby a and b represent the measured parameters (length and width). The termination of the experiment was initiated 28 days after cell inoculation, respectively 22 days after treatment start, since the average volume of the tumors in the control group reached 1800 mm^3. The mice from all groups were sacrificed by cervical dislocation. The anti-tumor effects and the liver toxicity of the conjugates and free Dau were evaluated based on the tumor volume and the liver weight/body weight ratio in each group. Moreover, the anti-proliferative and anti-metastatic activity of the conjugates and free Dau was evaluated in primary tumor and in metastases on the peripheral organs.
The routinely formalin-fixed tumors were dehydrated in a graded series of ethanol, infiltrated with xylene and embedded into paraffin at a temperature not exceeding 60 °C. Two micron thick sections were mounted on Superfrost slides (Thermo Shandon, Runcorn, UK) and then manually deparaffinized. To block endogenous peroxidase activity, slides were treated for 20 min. at r.t. with 3% H2O2 in methanol. The slides were immersed in 6% citrate buffer (pH = 6) and exposed to 98 °C water bath for 40 min. […] After washing, secondary antibody Biotinylated Link (Dako) was applied for 10 min. at r.t. For visualization, supersensitive one step polymer HRP (Biogenex, Fremont, CA, USA) was used with 3-amino-9-ethylcarbazole (AEC) as chromogen. Staining without the primary antibody served as the negative control.
Liver, spleen, lung and kidneys were harvested and fixed in formalin. All of the visible macro-metastatic lesions of the peripheral organs of seven animals from the control and treated groups on a stereo microscope Kruss MSZ5600 (Kruss Optronic, Hamburg, Germany) under 7–45-fold magnification were counted. The percentages of macro-metastatic lesions in the treated groups compared to the control group was calculated.
Proliferation marker stained samples were evaluated on light microscope Olympus BH-2 microscope (Olympus, Tokyo, Japan). […] The proliferation index was calculated as percentage of KI-67 positive cells from all cells in the field of view.

[4] = Chronic toxicity study on healthy mice; assay type: in vivo; conditions: healthy BALB/c female mice; i.p.; conjugates 15 mg/kg Dau content x5 (days 1,3,6,8,10); free Dau 1 mg/kg x2 (days 1,8); 14 days; 3 mice per group
Protocol: Adult female inbred BALB/c mice from a specified pathogen free (SPF) breeding of the National Institute of Oncology (Budapest, Hungary), were used in acute and chronic toxicity studies and in orthotopic 4T1 mice breast tumor model experiment. The mice were kept in a sterile environment in Makrolon® cages at 22–24 °C (40–50% humidity), with a lighting regulation of 12/12 h light/dark. The animals had free access to tap water and were fed with a sterilized standard diet (VRF1, autoclavable, Akronom Kft., Budapest, Hungary) ad libitum.
In order to determine the toxicity of the conjugates, in vivo acute and chronic toxicity studies were performed on healthy animals. In acute toxicity study, adult BALB/c female mice (20–23 g) were treated by a single intraperitoneal (i.p.) injection of conjugate 2, whereby different doses (3.125, 6.25, 12.5, 25 and 50 mg/kg Dau content) were administrated to each groups (three mice per group). In chronic toxicity studies, adult female BALB/c mice (23–26 g) were treated either with GnRH-III conjugates by i.p. administration with a dose of 15 mg/kg Dau content on day 1, 3, 6, 8 and 10, or with free Dau (1 mg/kg) on day 1 and 8. In case of the control group, sterile water was administered. Each group consisted of three mice. The toxicity was evaluated on the basis of life span, behavior and appearance of the mice, as well as the body weight. […]

PANC-1 = assay: In vitro anti-proliferative activity (MTT assay); assay type: cell-based; conditions: Homo sapiens, PANC-1 (pancreas), 24 h treatment + 48 h culture, average ± SD
Protocol: (§1) In experimental procedures following cell lines were used, MDA-MB-231 and MCF-7 (human breast cancer), 4T1 (mice breast cancer), DU145 and PC-3 (human prostate cancer), A2780, OVCAR-3 and OVCAR-8 (human ovarian cancer), HepG2 (human liver cancer), A2058, WM983b, HT168-M1/9 and M24 (human melanoma), B16 (mice melanoma), H1975, H1650 and A549 (human lung cancer), HT-29 (human colorectal adenocarcinoma), C26 (mice colon cancer) and PANC-1 (pancreatic cancer) were cultured in RPMI 1640 Medium with glutamine (Roswell Park Memorial Institute Medium, Lonza, Basel, Switzerland). Moreover, U87MG (human malignant glioma) and MRC-5 (normal human fibroblast) were cultured in Dulbecco’s Modified Eagle’s Medium (DMEM, Lonza) and PE/CA-PJ15 and PE/CA-PJ41 (head and neck cancer) were cultured in Iscove’s Modified Dulbecco’s Medium (IMEM, Sigma Aldrich, St. Louis, MO, USA). Apart from the cell culture medium for OVCAR-3 cells, all media were supplemented with 10% heat-inactivated FBS (Fetal Bovine Serum, Euroclone, Milan, Italy) and 1% Penicillin/Streptomycin (Sigma Aldrich), while OVCAR-3 cells were cultured in 20% FBS containing RPMI medium. The cell lines were mainly obtained from ATCC, except for PE/CA-PJ15, PE/CA-PJ41 (ECACC), A2058 (kindly provided by L.A. Liotta, NCI, Bethesda, MD, USA), HT-168-M1/9 (derived from A2058), M24 (kind gift from B.M. Mueller, Scripps Research Institute, La Jolla, CA, USA) and WM983b (kindly provided by Meenhard Herlyn, Wistar Institute, Philadelphia, PA, USA). Cells were cultured in sterile T25 or T75 flasks with ventilation cap (Sarstedt, Nümbrecht, Germany) at 37 °C in a humidified atmosphere with 5% CO2.
(§2) For the evaluation of the in vitro anti-proliferative activity of the GnRH-III conjugates and free Dau, the cell viability was determined by MTT assay (3-(4,5-dimethylthiazol-2-yl)-2,5-diphenyl-tetrazolium bromide) that was obtained from Sigma Aldrich. After standard harvesting of the cells by trypsin-EDTA (Lonza), 4 × 10^3 till 10 × 10^3 cells per well depending on cell line, were seeded in serum containing growth medium to 96-well plates (Sarstedt) and incubated. After 24 h, the growth medium was removed and cells were treated with various concentrations of conjugates 1 and 2 (32 nM–100 µM) or free Dau (0.1 nM–10 µM), dissolved in serum free medium and incubated for 24 h under standard conditions. The control wells were treated with serum free medium. After 24 h of treatment, the cells were washed twice with serum free medium and then cultured in serum containing medium for an additional 48 h. Afterward, the MTT assay was performed, in order to determine cell viability, by adding 20 µL of MTT solution (5 mg/mL in PBS) to each well and after 2 h of incubation at 37 °C, the supernatant was removed. The formazan crystals were dissolved in 100 µL of a 1:1 solution of DMSO (Sigma Aldrich):EtOH (Molar Chemicals Kft., Halásztelek, Hungary) and the absorbance was measured after 15 min. at λ = 570 nm by using a microplate reader (Bio-Rad, model 550, Hercules, CA, USA). The IC50 values of the conjugates and free drug were calculated while using GraphPad Prism 6 (GraphPad Software, San Diego, CA, USA). The experiments were done in triplicate and each experiment was repeated twice.

DU145 = assay: In vitro anti-proliferative activity (MTT assay); assay type: cell-based; conditions: Homo sapiens, DU-145, DU145 (prostate), 24 h treatment + 48 h culture, average ± SD
Protocol: as §1, §2

MRC-5 = assay: In vitro anti-proliferative activity (MTT assay); assay type: cell-based; conditions: Homo sapiens, MRC5, MRC-5 (normal fibroblast), 24 h treatment + 48 h culture, average ± SD
Protocol: as §1, §2

H1650 = assay: In vitro anti-proliferative activity (MTT assay); assay type: cell-based; conditions: Homo sapiens, NCI-H1650, H1650 (lung), 24 h treatment + 48 h culture, average ± SD
Protocol: as §1, §2

PE/CA-PJ15 = assay: In vitro anti-proliferative activity (MTT assay); assay type: cell-based; conditions: PE/CA-PJ15 (head and neck), 24 h treatment + 48 h culture, average ± SD
Protocol: as §1, §2

HT168-M1/9 = assay: In vitro anti-proliferative activity (MTT assay); assay type: cell-based; conditions: Homo sapiens, HT168-M1/9 (melanoma), 24 h treatment + 48 h culture, average ± SD
Protocol: as §1, §2

HT-29 = assay: In vitro anti-proliferative activity (MTT assay); assay type: cell-based; conditions: Homo sapiens, HT-29 (colon), 24 h treatment + 48 h culture, average ± SD
Protocol: as §1, §2

H1975 = assay: In vitro anti-proliferative activity (MTT assay); assay type: cell-based; conditions: Homo sapiens, NCI-H1975, H1975 (lung), 24 h treatment + 48 h culture, average ± SD
Protocol: as §1, §2

HepG2 = assay: In vitro anti-proliferative activity (MTT assay); assay type: cell-based; conditions: Homo sapiens, HepG2 (liver), 24 h treatment + 48 h culture, average ± SD
Protocol: as §1, §2

A2058 = assay: In vitro anti-proliferative activity (MTT assay); assay type: cell-based; conditions: Homo sapiens, A2058 (melanoma), 24 h treatment + 48 h culture, average ± SD
Protocol: as §1, §2

U87MG = assay: In vitro anti-proliferative activity (MTT assay); assay type: cell-based; conditions: Homo sapiens, U-87 MG, U87MG (glioblastoma), 24 h treatment + 48 h culture, average ± SD
Protocol: as §1, §2

PC-3 = assay: In vitro anti-proliferative activity (MTT assay); assay type: cell-based; conditions: Homo sapiens, PC-3 (prostate), 24 h treatment + 48 h culture, average ± SD
Protocol: as §1, §2

A2780 = assay: In vitro anti-proliferative activity (MTT assay); assay type: cell-based; conditions: Homo sapiens, A2780 (ovarian), 24 h treatment + 48 h culture, average ± SD
Protocol: as §1, §2

M24 = assay: In vitro anti-proliferative activity (MTT assay); assay type: cell-based; conditions: Homo sapiens, M24 (melanoma), 24 h treatment + 48 h culture, average ± SD
Protocol: as §1, §2

MDA-MB-231 = assay: In vitro anti-proliferative activity (MTT assay); assay type: cell-based; conditions: Homo sapiens, MDA-MB-231 (breast), 24 h treatment + 48 h culture, average ± SD
Protocol: as §1, §2

MCF-7 = assay: In vitro anti-proliferative activity (MTT assay); assay type: cell-based; conditions: Homo sapiens, MCF7, MCF-7 (breast), 24 h treatment + 48 h culture, average ± SD
Protocol: as §1, §2

4T1 = assay: In vitro anti-proliferative activity (MTT assay); assay type: cell-based; conditions: Mus musculus, 4T1 (mice breast), 24 h treatment + 48 h culture, average ± SD
Protocol: as §1, §2

PE/CA-PJ41 = assay: In vitro anti-proliferative activity (MTT assay); assay type: cell-based; conditions: PE/CA-PJ41 (head and neck), 24 h treatment + 48 h culture, average ± SD
Protocol: as §1, §2

B16 = assay: In vitro anti-proliferative activity (MTT assay); assay type: cell-based; conditions: Mus musculus, B16 (mice melanoma), 24 h treatment + 48 h culture, average ± SD
Protocol: as §1, §2

A549 = assay: In vitro anti-proliferative activity (MTT assay); assay type: cell-based; conditions: Homo sapiens, A549 (lung), 24 h treatment + 48 h culture, average ± SD
Protocol: as §1, §2

OVCAR-3 = assay: In vitro anti-proliferative activity (MTT assay); assay type: cell-based; conditions: Homo sapiens, OVCAR-3 (ovarian), 24 h treatment + 48 h culture, average ± SD
Protocol: as §1, §2

OVCAR-8 = assay: In vitro anti-proliferative activity (MTT assay); assay type: cell-based; conditions: Homo sapiens, OVCAR-8 (ovarian), 24 h treatment + 48 h culture, average ± SD
Protocol: as §1, §2

WM983b = assay: In vitro anti-proliferative activity (MTT assay); assay type: cell-based; conditions: Homo sapiens, WM983b (melanoma), 24 h treatment + 48 h culture, average ± SD
Protocol: as §1, §2

C26 = assay: In vitro anti-proliferative activity (MTT assay); assay type: cell-based; conditions: Mus musculus, C26 (mice colon), 24 h treatment + 48 h culture, average ± SD
Protocol: as §1, §2

[5] = SCID mice, i.p., 1 and 2 10 mg/kg Dau content x7, end day 30, free Dau 1 mg/kg x3, end day 23, 6 per group
[6] = SCID mice, i.p., 1 and 2 15 mg/kg Dau content x6 + 7.5 mg/kg x1, free Dau 1 mg/kg x4, day 45, 7 per group
[7] = vs control, 1 and 2 10 mg/kg Dau content x6, free Dau 1 mg/kg x3, day 28, 7 animals

COc1cccc2c1C(=O)c1c(O)c3c(c(O)c1C2=O)C[C@@](O)(C(C)=O)C[C@@H]3O[C@H]1C[C@H](N)[C@H](O)[C@H](C)O1 [Dau, daunorubicin]
Decrease of liver/body weight ratio compared to control ([1]; 1 and 2 10 mg/kg Dau content x7, day 30, free Dau 1 mg/kg x3, day 23): 29.4%
Animal body weight at the end of experiment compared to the start [1, 5]: significantly decreased
Reduction of tumor weight compared to control [1, 5]: 84.3% and 84%
Decrease of liver/body weight ratio compared to control ([2]; 1 and 2 15 mg/kg Dau content x6 + 7.5 mg/kg x1, free Dau 1 mg/kg x4, day 45): 16.8%
Decrease of body weight at the end of experiment compared to the beginning [2, 6]: 20%
Inhibition of tumor volume compared to control [2, 6]: 46.3% and 46%
Inhibition of tumor weight [2, 6]: 40.1%
Number of mice with metastases close to the primary tumor ([2]; end of experiment day 45, control 5/5): four out of seven and 4/7 and 4/7 ^2
Decrease of liver/body weight ratio compared to control ([3]; 1 and 2 10 mg/kg Dau content x6, free Dau 1 mg/kg x3, day 28): 9.8%
Animal body weight at the end of experiment compared to the start ([3]; BALB/c mice, i.p., 1 and 2 10 mg/kg Dau content x6, free Dau 1 mg/kg x3, day 28, 7 per group): slightly decreased
Inhibition of proliferation index of lung metastases ([3]; KI-67, vs control, 1 and 2 10 mg/kg Dau content x6, free Dau 1 mg/kg x3): 27.8% and 28%
Decrease of proliferation index in primary tumor compared to control ([3]; KI-67 positive cells, 400x, 1 and 2 10 mg/kg Dau content x6, free Dau 1 mg/kg x3, day 28): 19%
Inhibition of number of micro-metastases in the lung compared to control ([3]; KI-67 stained, per field of view 100x, 1 and 2 10 mg/kg Dau content x6, free Dau 1 mg/kg x3): 33.7% and 34%
Decrease of spleen weight compared to control ([3]; day 28, 7 per group, Figure S2): 27.2%
Decrease of number of macro-metastases in lung [3, 7]: 55.4%
Decrease of number of macro-metastases in spleen [3, 7]: 64.3%
Chronic toxicity: body weight, general looking and behavior [4]: could not observe a significant change in body weight
IC50 (PANC-1): 0.526 ± 0.0247 µM
IC50 (DU145): 0.0163 ± 0.0046 µM
IC50 (MRC-5): 0.288 ± 0.0351 µM
IC50 (H1650): 0.0503 ± 0.0134 µM
IC50 (PE/CA-PJ15): 0.0505 ± 0.0387 µM
IC50 (HT168-M1/9): 0.0275 ± 0.0091 µM
IC50 (HT-29): 0.2029 ± 0.001 µM
IC50 (H1975): 0.0209 ± 0.0027 µM
IC50 (HepG2): 0.0229 ± 0.0014 µM
IC50 (A2058): 0.0351 ± 0.0149 µM
IC50 (U87MG): 0.126 ± 0.0537 µM
IC50 (PC-3): 0.0327 ± 0.0047 µM
IC50 (A2780): 0.0104 ± 0.0016 µM
IC50 (M24): 0.119 ± 0.025 µM
IC50 (MDA-MB-231): 0.0546 ± 0.0074 µM
IC50 (MCF-7): 0.0639 ± 0.021 µM
IC50 (4T1): 0.056 ± 0.0147 µM
IC50 (PE/CA-PJ41): 0.0456 ± 0.0335 µM
IC50 (B16): 0.026 ± 0.008 µM
IC50 (A549): 0.0693 ± 0.0235 µM
IC50 (OVCAR-3): 0.404 ± 0.0094 µM
IC50 (OVCAR-8): 0.186 ± 0.0998 µM
IC50 (WM983b): 0.0498 ± 0.0229 µM
IC50 (C26): 0.118 ± 0.0086 µM
